From patent US9150519B2, “6-amino-pyrimidine-4-carboxamide derivatives and related compounds which bind to the sphingosine 1-phosphate (S1P) receptor for the treatment of multiple sclerosis” (MERCK SERONO SA, priority 2007, dated 2015) come the findings set out here.

For one assay, the target named is S1P3 (Homo sapiens (Human), UniProt Q99500). In words: 35S-GTPγS binding assay, S1P3 membranes. The conditions noted are these: membranes from CHO cells expressing S1P3; read-out: S1P3 GTPyS EC50. The format is biochemical. As for the experimental part:
(§1) Membranes were prepared from CHO cells expressing S1P1 or S1P3 for use in ligand and […] binding studies. Cells were suspended in 50 mM TRIS, pH 7.4, 2 mM EDTA, 250 mM Sucrose (buffer A) and 1× Complete protease inhibitor cocktail (Roche), and disrupted at 4° C. by nitrogen decompression using a cell disruption bomb (Parr Instrument). Following centrifugation at 1000 RPM for 10 min at 4° C., the supernatant was suspended in buffer A and centrifuged again at 19000 RPM for 60 min at 4° C. The pellet was then suspended in 10 mM HEPES, pH 7.4, 1 mM EDTA, 250 mM Sucrose (Buffer B), and 1× Complete EDTA-free protease inhibitor cocktail and homogenized using a potter. Membranes were flash frozen in liquid nitrogen and stored at −80° C. [33P]sphingosine 1-phosphate (3000 Ci/mmol; American Radiolabeled Chemicals, Inc.) was added to test compounds in DMSO. Membranes and WGA SPA beads (GE Healthcare) were added to give a final volume of 100 μl in 96-well plates with assay concentrations of 25 μM or 10 μM [33P]sphingosine 1-phosphate (respectively for S1P1 or S1P3), 50 mM HEPES, pH 7.5, 5 mM MgCl2, 100 mM NaCl, 0.4% fatty acid-free BSA, 1-5 μg/well of proteins and 100 μg/well of WGA SPA beads. Binding was performed for 60 min at room temperature on a shaker and bound radioactivity was measured on a PerkinElmer 1450 MicroBeta counter. Specific binding was calculated by subtracting remaining radioactivity in the presence of 1000-fold excess of unlabeled S1P. Binding data were analyzed using the GraphPad Prism program.
Measurements of ^35S-GTPγS Binding: Membranes (1 to 10 μg protein) prepared as described above, were incubated in 96-well Scintiplates (PerkinElmer) with test compounds diluted in DMSO, in 180 μl of 20 mM HEPES, pH 7.4, 10 mM MgCl2, 2 μg/well Saponin, 0.2% fatty acid free BSA (Assay buffer), 140 mM NaCl and 1.7 μM GDP. The assay was initiated with the addition of 20 μl of 1.5 nM [35S]-GTPγS (1100 Ci/mmol; GE Healthcare) in assay buffer. After 60 min incubation at 30° C. on a shaker, plates were centrifuged for 10 min at 2000 RPM. Supernatant was discarded and membrane bound radioactivity was measured on a PerkinElmer 1450 MicroBeta counter. Triplicate samples were averaged and expressed as % response relative to SIP activation in absence of compound (n=2).
For orientation: GTPγS resists hydrolysis and so accumulates on activated G proteins.

Another assay deals with S1P1 (Homo sapiens (Human), UniProt P21453). The assay can be described thus: 35S-GTPγS binding assay, S1P1 membranes. The format is biochemical. The conditions noted are these: membranes from CHO cells expressing S1P1; read-out: S1P1 GTPyS EC50. On the procedure:
as §1, with “Membranes and WGA SPA beads (GE Healthcare) were added to give a final volume of 100 μl in 96-well plates with assay concentrations of 25 μM or 10 μM [33P]sphingosine 1-phosphate (respectively for S1P1 or S1P3), 50 mM HEPES, pH 7.5, 5 mM MgCl2, 100 mM NaCl, 0.4% fatty acid-free BSA, 1-5 μg/well of proteins and 100 μg/well of WGA SPA beads.” left out
The assay was initiated with the addition of 20 μl of 1.5 nM [35S]-GTPγS (1100 Ci/mmol; GE Healthcare) in assay buffer. After 60 min incubation at 30° C. on a shaker, plates were centrifuged for 10 min at 2000 RPM. Supernatant was discarded and membrane bound radioactivity was measured on a PerkinElmer 1450 MicroBeta counter. Triplicate samples were averaged and expressed as % response relative to SIP activation in absence of compound (n=2).

Chain of S1P3 (Q99500 whole entry, species assumed): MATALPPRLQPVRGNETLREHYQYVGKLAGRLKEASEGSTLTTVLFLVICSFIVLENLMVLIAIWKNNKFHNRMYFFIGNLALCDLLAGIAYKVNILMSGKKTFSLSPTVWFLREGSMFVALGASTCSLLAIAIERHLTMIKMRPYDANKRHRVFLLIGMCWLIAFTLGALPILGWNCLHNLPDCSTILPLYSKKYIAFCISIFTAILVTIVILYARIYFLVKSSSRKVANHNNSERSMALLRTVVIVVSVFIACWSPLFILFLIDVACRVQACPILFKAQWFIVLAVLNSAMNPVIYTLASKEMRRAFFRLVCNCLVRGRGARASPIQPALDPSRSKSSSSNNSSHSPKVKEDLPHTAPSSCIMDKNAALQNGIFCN
Chain of S1P1 (P21453 whole entry, species assumed): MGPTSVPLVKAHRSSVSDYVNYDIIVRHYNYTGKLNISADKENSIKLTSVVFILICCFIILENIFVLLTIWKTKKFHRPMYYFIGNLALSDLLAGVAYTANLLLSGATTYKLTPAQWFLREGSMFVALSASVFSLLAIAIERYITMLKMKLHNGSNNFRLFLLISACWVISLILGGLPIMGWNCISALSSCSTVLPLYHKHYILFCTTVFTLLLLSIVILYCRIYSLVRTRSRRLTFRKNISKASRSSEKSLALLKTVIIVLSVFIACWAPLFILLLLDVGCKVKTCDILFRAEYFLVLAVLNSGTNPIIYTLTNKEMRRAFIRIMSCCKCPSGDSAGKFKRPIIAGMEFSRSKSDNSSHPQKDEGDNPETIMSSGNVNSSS

Take `O=C(Nc1ccc2[nH]ncc2c1)c1cc(N(CC2CC2)C2CCCCC2)ncn1` [Example 1-44]: the concentration for a half-maximal effect (EC50) on S1P3 is over 20000 nM; on S1P1 it was 9 nM.

On to `CCCN(CC1CC1)c1cc(C(=O)Nc2ccc3[nH]ncc3c2)ncn1` [Example 1-45], for which the figures for the EC50 at S1P3 and at S1P1 were 416 nM and 13 nM, respectively.

In the case of `O=C(Nc1ccnc2ccccc12)c1cc(N(CC2CC2)C2CCCCC2)ncn1` [Example 1-46], the concentration giving a half-maximal response (EC50) at S1P3 was determined as 1160 nM; at S1P1, 19 nM.

Consider `Cc1cc2[nH]ncc2cc1NC(=O)c1cc(N(CC2CC2)C2CCCCC2)ncn1` [Example 1-47], for which the 50% effective concentration (EC50) at S1P3 came out at 3270 nM; at S1P1, 6 nM.

On to `CCCN(c1cc(C(=O)Nc2ccc(S(N)(=O)=O)cc2C)ncn1)C1CCCCC1` [Example 1-54], for which the half-maximal effective concentration (EC50) was 1990 nM on S1P3 and 2.9 nM on S1P1.

For `CCCN(CCC)c1cc(C(=O)Nc2ccc(S(N)(=O)=O)cc2C)ncn1` [Example 1-57], the EC50 at S1P3 is over 20000 nM; at S1P1, 36 nM.

As to `Cc1cc(S(N)(=O)=O)ccc1NC(=O)c1cc(N(CC(C)C)C2CCCC2)ncn1` [Example 1-58], the 50% effective concentration (EC50) on S1P3 is over 20000 nM; on S1P1, 39 nM.

For `CCCN(c1cc(C(=O)Nc2ccc(S(N)(=O)=O)cc2C)ncn1)C(C)C` [Example 1-60], the EC50 at S1P3 is over 20000 nM; at S1P1 it was 51 nM.

As for `Cc1cc(S(=O)(=O)NCC(=O)O)ccc1NC(=O)c1cc(N(CC2CC2)C2CCCCC2)ncn1` [Example 1-61], the concentration for a half-maximal effect (EC50) is 259 nM at S1P3 and 12 nM on S1P1.

Regarding `CCCN(CC1CC1)c1cc(C(=O)Nc2cc3cn[nH]c3cc2C)ncn1` [Example 1-71], the EC50 was over 20000 nM on S1P3 and 12 nM on S1P1.

With `COC(=O)CCNCc1ccc(NC(=O)c2cc(N(CC3CC3)C3CCCCC3)ncn2)cc1` [Example 1-76], the half-maximal effective concentration (EC50) was 777 nM at S1P3 and 48 nM at S1P1.

Turning to `CNS(=O)(=O)c1ccc(NC(=O)c2cc(N(CC3CC3)C3CCCCC3)ncn2)c(C)c1` [Example 1-105], the EC50 at S1P3 amounted to 2470 nM; at S1P1, 5.8 nM.

With `COCCNS(=O)(=O)c1ccc(NC(=O)c2cc(N(CC3CC3)C3CCCCC3)ncn2)c(C)c1` [Example 1-107], the EC50 on S1P3 stood at 3300 nM; at S1P1, 19 nM.

Regarding `CCCN(CC1CC1)c1cc(C(=O)Nc2ccc(S(=O)(=O)NC)cc2C)ncn1` [Example 1-109], the EC50 at S1P3 was over 20000 nM; at S1P1 it was 63 nM.

On to `O=C(Nc1cccc2[nH]ccc12)c1cc(N(CC2CC2)C2CCCCC2)ncn1` [Example 1-126], for which the concentration for a half-maximal effect (EC50) at S1P3 was over 20000 nM; on S1P1, 6 nM.

For `O=C(Nc1cccc2[nH]ncc12)c1cc(N(CC2CC2)C2CCCCC2)ncn1` [Example 1-127], the values for the EC50 on S1P3 and on S1P1 were over 20000 nM and 48 nM, respectively.

For `O=C(O)CCCS(=O)(=O)c1ccc(NC(=O)c2cc(N(CC3CC3)C3CCCCC3)ncn2)cc1` [Example 1-132], the 50% effective concentration (EC50) is 85 nM at S1P3 and 40 nM on S1P1.

In general, EC50 refers to the concentration at which the effect is half-maximal.
